Laboratory results from paper PMC10401832 (Biotechnology for Biofuels and Bioproducts, 2023).

Experiments:
[1] = biological target: T1, GsAlaDH (Geobacillus stearothermophilus, UniProt P17557); experiment: spectrophotometric NADH change at […] nm; assay type: biochemical; conditions: oxidative deamination, NAD+, Na2CO3-NaHCO3 pH 10.0; Table 1 heads this block 'Reductive reaction' but text assigns it to L-alanine
T1 construct: gene ald; possible hexamer (model)

[2] = substrate: CC(=O)C(=O)O; experiment: purified protein; assay type: biochemical, Bacillus subtilis; conditions: reductive amination, NADH and NH4Cl, Tris-HCl pH 8.0, Table 1 heads this block 'Oxidative reaction' but text assigns it to pyruvate

T1 sequence (P17557 whole entry): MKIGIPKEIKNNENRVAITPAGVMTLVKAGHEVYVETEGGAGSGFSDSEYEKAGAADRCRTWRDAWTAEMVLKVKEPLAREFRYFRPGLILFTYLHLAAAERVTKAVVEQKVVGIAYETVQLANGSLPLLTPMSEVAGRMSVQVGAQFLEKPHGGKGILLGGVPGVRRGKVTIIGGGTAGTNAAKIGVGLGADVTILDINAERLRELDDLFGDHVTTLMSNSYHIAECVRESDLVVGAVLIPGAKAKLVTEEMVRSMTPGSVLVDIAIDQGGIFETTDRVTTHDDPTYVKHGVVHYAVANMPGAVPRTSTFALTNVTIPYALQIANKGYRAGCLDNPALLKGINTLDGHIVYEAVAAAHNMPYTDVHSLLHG

C[C@H](N)C(=O)O [L-alanine]
Km [1]: 810 ± 250 µM

B1: BsAlaDH (Bacillus subtilis subsp. subtilis str. 168) (protein)
chain: MIIGVPKEIKNNENRVALTPGGVSQLISNGHRVLVETGAGLGSGFENEAYESAGAEIIADPKQVWDAEMVMKVKEPLPEEYVYFRKGLVLFTYLHLAAEPELAQALKDKGVTAIAYETVSEGRTLPLLTPMSEVAGRMAAQIGAQFLEKPKGGKGILLAGVPGVSRGKVTIIGGGVVGTNAAKMAVGLGADVTIIDLNADRLRQLDDIFGHQIKTLISNPVNIADAVAEADLLICAVLIPGAKAPTLVTEEMVKQMKPGSVIVDVAIDQGGIVETVDHITTHDQPTYEKHGVVHYAVANMPGAVPRTSTIALTNVTVPYALQIANKGAVKALADNTALRAGLNTANGHVTYEAVARDLGYEYVPAEKALQDESSVAGA
notes: primers imply N-term MIIGVP, C-term SVAGA; about 45-55 kDa; possible hexamer (model)
Km [2]: 70 ± 30 µM
